{
  "source": "patent US6503545B1",
  "about": "(Brandeis University, priority 1999, dated 2003)",
  "key": {"[1]": {"settings": "cited from earlier work; for Vit. E/Chol. ratio Incr.: above basal fasting ratio"}, "[2]": {"settings": "400 IU daily soft gel capsule, six years, 601 subjects; cited from earlier work"}, "[3]": {"settings": "per 1 mg, National Formulary; cited from earlier work"}, "LDL": {"tested_on": "LDL", "settings": "gel-capsule, ex vivo lag time; cited from earlier work"}, "[4]": {"settings": "150 mg natural and 150 mg synthetic daily in soft gelatin capsule, ten days; cited from earlier work"}, "[5]": {"settings": "cited from earlier work"}, "[6]": {"settings": "in vivo; cited from earlier work"}, "[7]": {"settings": "supplements greater than 100 IU per day, 6 years, elderly; cited from earlier work"}, "[8]": {"assay": "Loss of vitamin E during milk processing (pasteurization)", "format": "physicochemical", "settings": "heating, e.g. pasteurization", "description": "In addition, as Applicant has described, normal processing of milk and other food products commonly includes heating, e.g., pasteurization.\nPreparation of Vitamin E-Fortified Milks: Pasteurized non-fat (skim) milk containing 2,000 I.U. per quart vitamin A palmitate and 400 I.U. per quart vitamin D2 was prepared by H.P. Hood, Inc. (Chelsea Mass.). […] Fortified cream or oil was then blended with non-fortified skim milk to make three vitamin E-fortified milks containing fat (see below). […] Milk processing losses of vitamin E were measured and were compensated, by including an excess of vitamin E in the each milk formulation equal to the measured processing loss. Four milks were formulated as follows: […]\nPreparation of Vitamin E-Fortified Milks: Preparation of milks, and the packaging and storage of milks by H.P. Hood, Inc. (Chelsea Mass.) were carried out as described for vitamin E-fortified milks in the first clinical study (see milk #3), except that the new milk (milk #21) was fortified with only 15 IU of all-rac-α-tocopherol acetate per serving. A portion of the milk batch was prepared without vitamins A and D (milk #20)."}, "[9]": {"assay": "Stability of vitamin E in fortified milks and orange juice during refrigerated storage", "format": "physicochemical", "settings": "2-3 weeks in refrigerated milk", "description": "The stability of all-rac E, oil was also monitored in regular 1% milkfat-containing milk (abbreviated “regular milk”). […] Although the starting levels of vitamin E were not identical in the beverages studied, all products were stored identically (see above) up to the time of the vitamin assay. Since the nominal shelf-life for milk is two weeks, and for refrigerated orange juice is four weeks, comparisons of vitamin E losses were made after three weeks storage."}, "[10]": {"settings": "ingestion of 1200 IU per day; cited from earlier work"}},
  "note": "Read-outs that look alike come from different tables or passages of the source.",
  "data": [
    {"molecule": "CC(=O)Oc1c(C)c(C)c2c(c1C)CCC(C)(CCCC(C)CCCC(C)CCCC(C)C)O2", "note": "(racemic) [all-rac-α-tocopherol acetate]", "values": [
      {"measurement": "Plasma Vit E Increase", "setting": "[1]; capsules 25 IU/day, above basal fasting level", "value": 19, "unit": "%"},
      {"measurement": "Vit. E/Chol. ratio Incr.", "setting": "[1]; capsules 100 IU/day", "value": 35, "unit": "%"},
      {"measurement": "Vit. E/Chol. ratio Incr.", "setting": "[1]; capsules 200 IU/day", "value": 65, "unit": "%"},
      {"measurement": "Vit. E/Chol. ratio Incr.", "setting": "[1]; capsules 400 IU/day", "value": 115, "unit": "%"},
      {"measurement": "average increase in plasma vitamin E", "setting": "[2]", "value": 83, "unit": "%"},
      {"measurement": "specific activity (IU per milligram)", "setting": "[3]", "value": 1.00, "unit": "IU"}
    ]},
    {"molecule": "Cc1c(C)c2c(c(C)c1O)CCC(C)(CCCC(C)CCCC(C)CCCC(C)C)O2", "note": "(racemic) [all-rac-α-tocopherol]", "values": [
      {"measurement": "specific activity (IU per milligram)", "setting": "[3]", "value": 1.10, "unit": "IU"},
      {"measurement": "minimum dose which significantly decreases the susceptibility of LDL to oxidation", "setting": "LDL", "value": 400, "unit": "IU/per day"}
    ]},
    {"molecule": "CC(=O)Oc1c(C)c(C)c2c(c1C)CC[C@@](C)(CCC[C@H](C)CCC[C@H](C)CCCC(C)C)O2", "note": "[RRR-α-tocopherol acetate]", "values": [
      {"measurement": "competitive bioavailability in plasma versus all-rac-α-tocopherol acetate", "setting": "[4]", "value": "up to two-fold greater"},
      {"measurement": "specific activity (IU per milligram)", "setting": "[3]", "value": 1.36, "unit": "IU"}
    ]},
    {"molecule": "Cc1c(C)c2c(c(C)c1O)CC[C@@](C)(CCC[C@H](C)CCC[C@H](C)CCCC(C)C)O2", "note": "[RRR-α-tocopherol]", "values": [
      {"measurement": "plasma vitamin E level, elevated", "setting": "[5]; 400-800 IU daily dose, basal 34.2 μmol/L", "value": 58, "unit": "µmol/L"},
      {"measurement": "average elevation in the plasma vitamin E level above the basal fasting level", "setting": "[5]; 400-800 IU daily dose", "value": 70, "unit": "%"},
      {"measurement": "reduction of the risk of non-fatal heart attacks", "setting": "[5]; 400 IU once per day in capsules, patients with coronary atherosclerosis", "value": 77, "unit": "%"},
      {"measurement": "specific activity (IU per milligram)", "setting": "[3]", "value": 1.49, "unit": "IU"}
    ]},
    {"molecule": "Cc1c(C)c2c(c(C)c1O)CC[C@@](C)(CCC[C@H](C)CCC[C@H](C)CCCC(C)C)O2", "note": "[α-tocopherol]", "values": [
      {"measurement": "supplemented dose excreted in the feces", "setting": "[6]", "value": "80-90%"}
    ]},
    {"molecule": "vitamin E", "values": [
      {"measurement": "reduction of CHD mortality", "setting": "[7]", "value": "41-47%"},
      {"measurement": "reduction of all-cause mortality", "setting": "[7]", "value": "27-34%"},
      {"measurement": "reduction of cancer mortality", "setting": "[7]", "value": "22-23%"},
      {"measurement": "loss of vitamin E associated with processing, generally", "setting": "[8]", "value": "20-25%"},
      {"measurement": "loss of vitamin E associated with processing, typically", "setting": "[8]", "value": "10-30%"},
      {"measurement": "shelf-life loss of vitamin E", "setting": "[9]", "value": "about 15%"},
      {"measurement": "adverse effects", "setting": "[10]", "value": "no adverse effects have been observed"}
    ]}
  ]
}
